Experimental data reported in patent publication US11130793B2, “GLP-1/GLP-2 dual agonists” (Zealand Pharma A/S, priority 2016, dated 2021).
Read-outs that look alike come from different tables or passages of the source. Square brackets hold non-standard residues; d marks the D form. Peptide text beside a SMILES is read from it. Aib = CC(C)(N)C(=O)O

Columns and labels:
[1] = molecular target: human glucagon-like peptide 1 receptor (GLP-1R) (human) (UniProt P43220)
[2] = molecular target: T1, human GLP-1 receptor (Homo sapiens, UniProt P43220); experiment: GLP-1 receptor potency assay (cAMP AlphaScreen, HEK293 cells stably expressing GLP-1R); assay type: cell-based
T1 construct: expressed in transfected cells
T1 sequence (P43220 24-463): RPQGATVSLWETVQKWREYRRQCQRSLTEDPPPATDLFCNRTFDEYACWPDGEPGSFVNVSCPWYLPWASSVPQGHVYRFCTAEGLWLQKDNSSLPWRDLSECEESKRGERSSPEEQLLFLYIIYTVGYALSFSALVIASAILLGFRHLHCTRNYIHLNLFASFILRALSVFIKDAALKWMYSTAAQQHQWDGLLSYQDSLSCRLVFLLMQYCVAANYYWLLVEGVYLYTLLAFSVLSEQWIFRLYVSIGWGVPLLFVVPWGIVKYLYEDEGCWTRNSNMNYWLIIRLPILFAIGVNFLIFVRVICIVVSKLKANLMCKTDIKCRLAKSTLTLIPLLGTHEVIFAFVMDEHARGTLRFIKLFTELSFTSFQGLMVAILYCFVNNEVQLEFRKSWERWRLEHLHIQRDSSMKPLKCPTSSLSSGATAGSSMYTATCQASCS
Method in brief: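 cAMP accumulation was quantified by AlphaScreen in G418-selected HEK293 cells stably transfected with human GLP-1R cDNA. Concentration-response data were normalized between vehicle and positive control. EC50 and maximal response came from 4PL curve fitting.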

[3] = molecular target: T2, human GLP-2 receptor (Homo sapiens, UniProt O95838); experiment: GLP-2 receptor potency assay (cAMP AlphaScreen, HEK293 cells stably expressing GLP-2R); assay type: cell-based
T2 sequence (O95838 1-553 D470N): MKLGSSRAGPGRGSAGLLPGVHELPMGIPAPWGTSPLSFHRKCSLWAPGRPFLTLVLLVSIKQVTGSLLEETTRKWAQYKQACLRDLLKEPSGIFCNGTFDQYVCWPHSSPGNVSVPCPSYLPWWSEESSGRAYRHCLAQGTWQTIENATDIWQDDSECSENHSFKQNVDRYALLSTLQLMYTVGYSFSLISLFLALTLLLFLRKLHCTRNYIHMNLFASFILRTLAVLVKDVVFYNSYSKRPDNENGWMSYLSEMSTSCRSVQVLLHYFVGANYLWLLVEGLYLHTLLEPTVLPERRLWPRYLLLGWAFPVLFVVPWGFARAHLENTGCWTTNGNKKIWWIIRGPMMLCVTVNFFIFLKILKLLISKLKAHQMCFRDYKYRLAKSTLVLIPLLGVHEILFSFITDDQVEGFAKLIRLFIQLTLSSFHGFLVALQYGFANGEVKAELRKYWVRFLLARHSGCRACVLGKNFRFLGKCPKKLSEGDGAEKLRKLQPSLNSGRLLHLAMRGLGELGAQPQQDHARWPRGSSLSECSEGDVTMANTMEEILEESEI
Method in brief: (§1)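 EC50 and maximal response were fitted with a 4PL model after normalization to positive control and vehicle. cAMP accumulation was quantified by AlphaScreen in a stable HEK293 clone transfected with human GLP-2 receptor.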

[4] = Chemical stability, RP-HPLC main peak area-% after incubation at 40° C.; assay type: physicochemical; conditions: pH 7, 40° C., 14 day incubation, 0.2 mg/ml, normalized purity
Protocol: Samples of each test peptide were dissolved in MilliQ™ water, and the pH of the solution was adjusted to pH 6, 7, 7.5 or 9 using either HCl or NaOH. The final peptide concentration was 0.2 mg/ml. Samples were placed in glass vials and incubated at 40° C. The samples were analyzed by RP-HPLC on a C18 column with gradient elution using an acetonitrile/TFA/water eluent system. The area-percentage (area-%) of the main peak after incubation time T=t (relative to time T=0) was determined by UV spectroscopy at 220 nm.
The purity was first determined as follows: Purity (area-%)=(area of main peak/total area of all peaks)×100.
The purity was then normalized between time points by setting purity at time 0 (T=0) to 100 for each pH value for a given peptide, as follows: Normalised area-% at time t (T=t)=[area-% (T=t)/area-% (T=0)]×100.
The chemical stability assessment results after 14 day incubation (in the form of normalized purity values) are summarized in Table 4.

[5] = Solubility assessment by turbidity absorbance at 325 nm; assay type: physicochemical; conditions: 1 mg/ml peptide
Protocol: A stock solution of the test peptide (2 mg/ml; determined from the weighed amount of peptide) in demineralized water adjusted to pH 2.5 with HCl was prepared, and aliquots were diluted 1:1 in 100 mM acetate buffer (pH 4.0 and pH 5.0), 100 mM histidine buffer (pH 6.0 and pH 7.0) and 100 mM phosphate buffer (pH 6.0, pH 7.0 and pH7.5), respectively, and loaded in a standard flat-bottom, non-sterile 96-well UV Microplate. The absorbance of samples (single samples, n=1) at 280 and 325 nm was measured in an absorbance-based plate reader, which was preheated to ambient temperature (typically 25° C.).

[6] = molecular target: T3, human GLP-2 receptor (Homo sapiens, UniProt O95838, D470N); experiment: GLP-2 receptor potency assay (cAMP AlphaScreen, HEK293 cells stably expressing GLP-2R); assay type: cell-based; conditions: cAMP response, HEK293 cells expressing human GLP-2R
T3 sequence (O95838 1-553 D470N): T2 sequence (O95838 1-553 D470N)
Method in brief: as §1

[7] = system: Normal chow-fed C57BL/6J male mice; experiment: Effect on fasting glucose and intestinal weight in normal mice; assay type: in vivo
Protocol: Normal chow-fed C57BL/6J male mice were used. The mice were kept in standard housing conditions, light-, temperature-, and humidity-controlled room (12:12 h light-dark cycle, with lights on at 06.00-18.00 h; 20-22° C.; 50-80% relative humidity). Each dosing group consisted of 6 animals. Mice were dosed once daily with 250 nmol/kg with the test compounds or vehicle for 4 days via subcutaneous administration.
On day 0 mice were fasted and blood glucose levels measured after a single s.c. injection with peptides. Animals were sacrificed 24 hours after final dosing on day 3, and small intestinal wet weights were measured.

## Liraglutide (NN2211; Victoza) (peptide)
[1]
  EC50 GLP-1 (nM); cAMP AlphaScreen: 0.029 nM

## CC[C@H](C)[C@H](NC(=O)[C@H](CC(C)C)NC(=O)[C@H](Cc1c[nH]c2ccccc12)NC(=O)[C@H](C)NC(=O)[C@@H](NC(=O)[C@H](Cc1ccccc1)NC(=O)[C@H](CCC(=O)O)NC(=O)[C@H](CCCNC(=N)N)NC(=O)[C@H](CO)NC(=O)[C@H](C)NC(=O)[C@H](CCC(N)=O)NC(=O)[C@H](CCC(=O)O)NC(=O)[C@H](CCC(=O)O)NC(=O)[C@H](CC(C)C)NC(=O)[C@@H](NC(=O)[C@@H](NC(=O)[C@H](CO)NC(=O)[C@H](CC(C)C)NC(=O)[C@H](CCC(=O)O)NC(=O)[C@H](CO)NC(=O)[C@H](CO)NC(=O)[C@H](Cc1ccccc1)NC(=O)[C@@H](NC(=O)CNC(=O)[C@H](CCC(=O)O)NC(=O)C(C)(C)NC(=O)[C@@H](N)Cc1c[nH]cn1)[C@@H](C)O)[C@@H](C)O)[C@@H](C)CC)[C@@H](C)CC)C(=O)N[C@@H](C)C(=O)N[C@@H](Cc1c[nH]cn1)C(=O)N[C@@H](CCCCN)C(=O)N[C@H](C(=O)N[C@H](C(=O)N[C@@H](CCC(=O)O)C(=O)O)[C@@H](C)O)[C@@H](C)CC [Compound 39] (H-H[Aib]EGTFSSELSTILEEQASREFIAWLIAHKITE-OH)
[2]
  EC50: 0.03 nM
[3]
  EC50: 0.96 nM

## H-HGEGTFTSELATILDEQAARDFIAWLIAHKITD-OH [Compound 38]
[2]
  EC50: 0.008 nM
[3]
  EC50: 0.043 nM
[4]
  pH 7 normalised stability: C (<80% normalized stability)

## CC[C@H](C)[C@H](NC(=O)[C@H](CC(C)C)NC(=O)[C@H](Cc1c[nH]c2ccccc12)NC(=O)[C@H](C)NC(=O)[C@@H](NC(=O)[C@H](Cc1ccccc1)NC(=O)[C@H](CC(=O)O)NC(=O)[C@H](CCCNC(=N)N)NC(=O)[C@H](C)NC(=O)[C@H](C)NC(=O)[C@H](CCC(N)=O)NC(=O)[C@H](CCC(=O)O)NC(=O)[C@H](CC(=O)O)NC(=O)[C@H](CC(C)C)NC(=O)[C@@H](NC(=O)[C@@H](NC(=O)[C@H](C)NC(=O)[C@H](CC(C)C)NC(=O)[C@H](CCC(=O)O)NC(=O)[C@H](CO)NC(=O)[C@@H](NC(=O)[C@H](Cc1ccccc1)NC(=O)[C@H](CO)NC(=O)CNC(=O)[C@H](CCC(=O)O)NC(=O)C(C)(C)NC(=O)[C@@H](N)Cc1c[nH]cn1)[C@@H](C)O)[C@@H](C)O)[C@@H](C)CC)[C@@H](C)CC)C(=O)N[C@@H](C)C(=O)N[C@@H](Cc1c[nH]cn1)C(=O)N[C@@H](CCCCN)C(=O)N[C@H](C(=O)N[C@H](C(=O)N[C@@H](CC(=O)O)C(=O)O)[C@@H](C)O)[C@@H](C)CC [Compound 1] (H-H[Aib]EGSFTSELATILDEQAARDFIAWLIAHKITD-OH)
[5]; 100 mM acetate buffer pH 4.0, ambient temperature, read-out: Solubility, Acetate buffer pH 4
  solubility: ≥ 1000 µg/mL
[5]; 100 mM acetate buffer pH 5.0, ambient temperature, read-out: Solubility, Acetate buffer pH 5
  solubility: < 1000 µg/mL
[5]; 100 mM histidine buffer pH 6.0, ambient temperature, read-out: Solubility, Histidine buffer pH 6
  solubility: ≥ 1000 µg/mL
[5]; 100 mM histidine buffer pH 7.0, ambient temperature, read-out: Solubility, Histidine buffer pH 7
  solubility: ≥ 1000 µg/mL
[5]; 100 mM phosphate buffer pH 6.0, ambient temperature, read-out: Solubility, Phosphate buffer pH 6
  solubility: ≥ 1000 µg/mL
[5]; 100 mM phosphate buffer pH 7.0, ambient temperature, read-out: Solubility, Phosphate buffer pH 7
  solubility: ≥ 1000 µg/mL
[5]; 100 mM phosphate buffer pH 7.5, ambient temperature, read-out: Solubility, Phosphate buffer pH 7.5
  solubility: ≥ 1000 µg/mL
[2]; cAMP response, HEK293 cells expressing human GLP-1R, read-out: EC50 GLP-1
  EC50: 0.014 nM
[6]
  EC50: 0.036 nM
[7]; 250 nmol/kg s.c. once daily for 4 days, sacrificed 24 hours after final dosing
  Small intestinal wet weight: 0.90 g
[7]; day 0, fasted mice, after a single s.c. injection, 250 nmol/kg
  Fasting blood glucose: 5.76 mM
